Consider three compounds from ChEMBL document CHEMBL4339185 (Eur J Med Chem, 2019).

For orientation: MIC means the lowest concentration that inhibits growth of the organism. Read a high MIC as a less susceptible organism. By solubility is commonly meant the dissolved amount per volume that the medium holds. As usually defined, the logP is a log measure of how a compound divides between an organic and an aqueous phase. Low values mean a more hydrophilic compound, high ones a more lipophilic compound.

The test system of data set [1] is Staphylococcus aureus. Put plainly: Antimicrobial activity against methicillin-resistant Staphylococcus aureus incubated for 18 hrs by serial microdilution method. In kind it is functional. On the technique in general: Dilution methods test growth across graded concentrations, often in twofold steps.
The test system of data set [2] is Staphylococcus aureus. Put plainly: Antimicrobial activity against Staphylococcus aureus ATCC 6538 incubated for 18 hrs by serial microdilution method. The settings on record: ATCC 6538, 18 h. The format is functional.
Data set [3] concerns Staphylococcus aureus. Kind of data set: Antimicrobial activity against MLSB-resistant Staphylococcus aureus incubated for 18 hrs by serial microdilution method. In kind it is functional.
In data set [4] the test system is Staphylococcus epidermidis. Kind of data set: Antimicrobial activity against Staphylococcus epidermidis ATCC 12228 incubated for 18 hrs by serial microdilution method. In kind it is functional. The settings on record: ATCC 12228, 18 h.
Data set [5] concerns Staphylococcus epidermidis. Put plainly: Antimicrobial activity against Staphylococcus epidermidis ATCC 49134 incubated for 18 hrs by serial microdilution method. The format is functional. As to conditions: ATCC 49134, 18 h.
For data set [6], the system named is Enterococcus faecalis. Kind of data set: Antimicrobial activity against Enterococcus faecalis ATCC 29212 incubated for 18 hrs by serial microdilution method. The settings on record: ATCC 29212, 18 h. In kind it is functional.
A further data set has as its system Escherichia coli. Put plainly: Antimicrobial activity against Escherichia coli ATCC 25922 incubated for 18 hrs by serial microdilution method. The format is functional. The settings on record: ATCC 25922, 18 h.
A short description of data set [7]: Solubility of the compound in water at pH 7 by UV-vis spectrophotometric analysis. The format is physicochemical.
Data set [8] in a line: Lipophilicity, log P of the compound in octanol and water incubated for 1 h under shaking condition. In kind it is physicochemical.
Data set [9] deals with Enterococcus faecalis. Kind of data set: Potency index, ratio of rifampicin MIC to compound MIC for Enterococcus faecalis ATCC 29212. In kind it is functional.
The test system of data set [10] is Enterococcus faecalis. Kind of data set: Potency index, ratio of rifaximin MIC to compound MIC for Enterococcus faecalis ATCC 29212. The format is functional.
Data set [11] relates to Staphylococcus aureus. Put plainly: Potency index, ratio of rifampicin MIC to compound MIC for Staphylococcus aureus ATCC 6538. The format is functional.
In data set [12] the test system is Staphylococcus aureus. Kind of data set: Potency index, ratio of rifaximin MIC to compound MIC for Staphylococcus aureus ATCC 6538. The format is functional.
The test system of data set [13] is Staphylococcus epidermidis. Kind of data set: Potency index, ratio of rifampicin MIC to compound MIC for Staphylococcus epidermidis ATCC 12228. In kind it is functional.
Data set [14] relates to Staphylococcus epidermidis. Put plainly: Potency index, ratio of rifaximin MIC to compound MIC for Staphylococcus epidermidis 12228. In kind it is functional.
The test system of data set [15] is Staphylococcus epidermidis. Put plainly: Potency index, ratio of rifampicin MIC to compound MIC for Staphylococcus epidermidis ATCC 49134. In kind it is functional.
Data set [16] deals with Staphylococcus epidermidis. Kind of data set: Potency index, ratio of rifaximin MIC to compound MIC for Staphylococcus epidermidis ATCC 49134. The format is functional.

≈ marks a conversion by molar mass, not a printed value.

Take `CO[C@H]1/C=C/O[C@@]2(C)Oc3c(C)c(O)c4c(O)c(c(CN5CCC(N6CCC(C(=O)O)CC6)CC5)c(O)c4c3C2=O)NC(=O)/C(C)=C\C=C\[C@H](C)[C@H](O)[C@@H](C)[C@@H](O)[C@@H](C)[C@H](OC(C)=O)[C@@H]1C`: the MIC with Staphylococcus aureus [1] was determined as 0.0078 µg/mL (≈ 0.00846 µM); with Staphylococcus aureus [2] it was 0.0078 µg/mL (≈ 0.00846 µM); with Staphylococcus aureus [3], 0.0078 µg/mL (≈ 0.00846 µM); in data set [4] it was 0.0078 µg/mL (≈ 0.00846 µM); in data set [5], 0.0078 µg/mL (≈ 0.00846 µM); against Enterococcus faecalis [6] it was 1 µg/mL (≈ 1.08 µM). This compound yielded a minimum inhibitory concentration (MIC) in the data set on Escherichia coli above 8 µg/mL. The same compound gave a solubility in data set [7] of 70000 µg/mL (≈ 75900 µM). The logP at 1 h in [8] is -1.34. Further, the Ratio (in the data set on Enterococcus faecalis [9]; in the data set with Enterococcus faecalis [10]; in the data set on Staphylococcus aureus [11]; in the data set on Staphylococcus aureus [12]; in data set [13]; in data set [14]) was 8 each time. Moreover, the Ratio in data set [15] and in data set [16] was 8 in each case.
With `CO[C@H]1/C=C/O[C@@]2(C)Oc3c(C)c(O)c4c(O)c(c(/C=N/NC5=NCCN5)c(O)c4c3C2=O)NC(=O)/C(C)=C\C=C\[C@H](C)[C@H](O)[C@@H](C)[C@@H](O)[C@@H](C)[C@H](OC(C)=O)[C@@H]1C`, the minimum inhibitory concentration (MIC) in the data set on Staphylococcus aureus [1] was found to be 0.0156 µg/mL (≈ 0.0193 µM); with Staphylococcus aureus [2] it was 0.0078 µg/mL (≈ 0.00965 µM); against Staphylococcus aureus [3], 0.0078 µg/mL (≈ 0.00965 µM); in [4] it was 0.0078 µg/mL (≈ 0.00965 µM); in data set [5] it was 0.0078 µg/mL (≈ 0.00965 µM); with Enterococcus faecalis [6] it was 1 µg/mL (≈ 1.24 µM). This compound also showed a minimal inhibitory concentration (MIC) against Escherichia coli above 8 µg/mL. In [7], this compound gave a solubility of 4250 µg/mL (≈ 5260 µM). The logP at 1 h in [8] was 1.33. For the same compound, the Ratio (with Enterococcus faecalis [9]; in the data set on Enterococcus faecalis [10]; in the data set on Staphylococcus aureus [11]; in the data set with Staphylococcus aureus [12]; in data set [13]; in data set [14]) was 8 in each case. The Ratio in data set [15] and in [16] was 8 in each case.
In the case of `CO[C@H]1/C=C/O[C@@]2(C)Oc3c(C)c(O)c4c(O)c(c(/C=N/N5CCOCC5)c(O)c4c3C2=O)NC(=O)/C(C)=C\C=C\[C@H](C)[C@H](O)[C@@H](C)[C@@H](O)[C@@H](C)[C@H](OC(C)=O)[C@@H]1C`, the MIC with Staphylococcus aureus [1] is 0.5 µg/mL (≈ 0.617 µM); against Staphylococcus aureus [2], 1 µg/mL (≈ 1.23 µM); in the data set on Staphylococcus aureus [3], 1 µg/mL (≈ 1.23 µM); in data set [4] it was 0.25 µg/mL (≈ 0.309 µM); in data set [5], 0.25 µg/mL (≈ 0.309 µM); in the data set on Enterococcus faecalis [6], above 8 µg/mL. The compound also gave an MIC against Escherichia coli above 8 µg/mL. Further, the solubility in data set [7] was below 50 µg/mL. The compound also had a logP at 1 h in data set [8] of 2.79.
